Laboratory results: publication PMC8879119, “α-Glucosidase Inhibitory Activity and Anti-Adipogenic Effect of Compounds from Dendrobium delacourii” (Molecules, 2022)
Where two headings read alike, the source gives them in different places.

Key:
α-glucosidase [1] = biological target: T1, α-glucosidase (Saccharomyces cerevisiae, UniProt P53341); test: biochemical
T1 construct: purchased Sigma-Aldrich (St. Louis, MO, USA)
Procedure: In this study, each compound was initially tested at 100 μg/mL.
(§1) Mass spectra were recorded on a Bruker micro TOF mass spectrometer (ESI-MS). NMR spectra were recorded on a Bruker Avance DPX-300FT-NMR spectrometer or a Bruker Avance III HD 500 NMR spectrometer. Vacuum-liquid column chromatography (VLC) and column chromatography (CC) were performed on silica gel 60 (Merck, Kieselgel 60, 70–320 mesh), silica gel 60 (Merck, Kieselgel 60, 230–400 mesh) (Darmstadt, Germany), and Sephadex LH-20 (25–100 μm, Pharmacia Fine Chemical Co. Ltd.) (Piscataway, NJ, USA). […] Mouse embryonic preadipocyte 3T3-L1 cells were acquired from the American Type Culture Collection (ATCC, Manassas, VA, USA). Dulbecco’s modified Eagle medium (DMEM), fetal bovine serum (FBS), penicillin/streptomycin, and L-glutamine were obtained from Gibco (Gaithersburg, MA, USA). Yeast alpha-glucosidase enzyme, p-nitrophenol-α-D-glucopyranoside, isobutylmethylxanthine, dexamethasone, MTT (methyl-thiazolyl-diphenyl-tetrazolium bromide), Hoechst33342, propidium iodide, dimethylsulfoxide (DMSO), and oil red O were purchased from Sigma-Aldrich (St. Louis, MO, USA). Insulin was obtained from Himedia (Mumbai, India). The radio-immunoprecipitation assay (RIPA) buffer, chemiluminescent substrates, and the bicinchoninic acid (BCA) protein assay kit were from Thermo Scientific (Rockford, IL, USA), and the nitrocellulose membranes were from Bio-Rad Laboratories (Hercules, CA, USA). All primary and secondary antibodies were purchased from Cell Signaling Technology (Danvers, MA, USA). Oxyresveratrol was provided by Prof. Kittisak Likhitwitayawuid.
The assay was based on the inhibition in the sample of α-glucosidase enzyme, which can release p-nitrophenol (PNP) from p-nitrophenyl-α-D-glucoside (PNPG) by hydrolysis. […] For IC50 determination, twofold serial dilution was performed for each sample. Each experiment was accomplished in triplicate. Data are expressed as mean ± SD.

α-glucosidase [2] = biological target: T1, α-glucosidase; test: biochemical; assay type: biochemical; conditions: for type of enzyme inhibition: Lineweaver–Burk plots; for Ki: from secondary plot of slopes versus inhibitor concentration, read-out: Ki (inhibitor constant)
Procedure: The experiment was performed by using Lineweaver–Burk plots of the reciprocal of velocity (1/V) against the reciprocal of substrate concentration (1/[S]) (Figure 2). […] A secondary plot of each compound was then constructed to evaluate the inhibition constant (Ki).
as §1
The kinetic study of enzyme inhibition was analyzed by the double reciprocal Lineweaver–Burk plot (1/V versus 1/[S]). […] The reaction was monitored every 5 min for a total time of 25 min and measured at 405 nm by a microplate reader. Each experiment was performed in triplicate. The Ki value was estimated by constructing a secondary plot which is plotted by the slopes of the double-reciprocal lines versus inhibitor concentration.

p-AMPKβ1 = test: Western blot of p-AMPKβ1 in differentiating 3T3-L1 cells; assay type: cell-based, Mouse; conditions: 20 µM, 38 h and 48 h
Text: (§2) Recent reports indicate that the downregulation of PPARγ and C/EBPα are correlated with the activation of AMPKα/β and ACC [43]. […] The increased expression level of p-ACC/ACC (Figure 5b), p-AMPKα/AMPKα (Figure 5c), and p-AMPKβ1/AMPKβ1/2 (Figure 5f) was correlated with suppression of PPARγ and C/EBPα protein expression (Figure 4e) as well as lipid accumulation in differentiated 3T3-L1 cells (Figure 4a). The results presented in this study correspond with the evidence of the stimulation of AMPK and ACC protein being associated with the inhibition of 3T3-L1 adipocyte differentiation.
(§3) After the indicated treatment, 3T3-L1 cells were washed with phosphate-buffered saline (PBS, pH 7.4), then the cell membranes were broken using RIPA buffer supplemented with a protease inhibitor cocktail. After incubation on ice for 45 min, the cell lysates were centrifuged at 12,000 rpm at 4 °C for 15 min to collect the clear supernatant containing cellular protein, which was measured for total protein content using a BCA assay kit. The total protein (30 µg) from each sample was loaded and separated onto 10% sodium dodecyl sulfate-polyacrylamide gel electrophoresis (SDS-PAGE). […] The reactive protein signals exposed with chemiluminescent substrates were captured and quantified using Chemiluminescent ImageQuant LAS 4000 (GE Healthcare Bio-Sciences AB, Björkgatan, Uppsala, Sweden).

p-Akt = test: Western blot of p-Akt in differentiating 3T3-L1 cells; assay type: cell-based, Mouse; conditions: 20 µM, 38–48 h
Text: as §2, §3

C/EBPα = test: Western blot of C/EBPα in differentiating 3T3-L1 cells; assay type: cell-based, Mouse; conditions: 20 µM, 38 h and 48 h, versus untreated control
Procedure: (§4) Adipogenesis involves a network of transcription factors that contribute to adipocyte differentiation and lipid accumulation. Although the adipogenic gene CCAAT-enhancer-binding protein beta (C/EBPβ) is expressed soon after exposure to the adipogenic inducers, the upregulation of PPARγ and C/EBPα is acquired after 36–48 h of the induction. In this regard, the translational level of PPARγ and C/EBPα was examined to elucidate the anti-adipogenic mechanism in preadipocyte 3T3-L1 cells cultured with 20 µM densifloral B (3) at both early (38 h) and late (48 h) stage. Western blot analysis indicated the prolong expression of PPARγ and C/EBPα, the adipogenic transcription factors, in 3T3-L1 cells from early until late stage of adipogenic process. […]
as §3, with “kit.” for “kit. The total protein (30 µg) from each sample was loaded and separated onto 10% sodium dodecyl sulfate-polyacrylamide gel electrophoresis (SDS-PAGE).”

PPARγ = test: Western blot of PPARγ in differentiating 3T3-L1 cells; assay type: cell-based, Mouse; conditions: 20 µM, 38 h and 48 h, versus untreated control
Procedure: as §4
as §3, with “kit.” for “kit. The total protein (30 µg) from each sample was loaded and separated onto 10% sodium dodecyl sulfate-polyacrylamide gel electrophoresis (SDS-PAGE).”

p-ACC = test: Western blot of p-ACC in differentiating 3T3-L1 cells; assay type: cell-based, Mouse; conditions: 20 µM, 38 h and 48 h
Text: as §2, §3

p-AMPKα = test: Western blot of p-AMPKα in differentiating 3T3-L1 cells; assay type: cell-based, Mouse; conditions: 20 µM, 38 h and 48 h
Text: as §2, §3

3T3-L1 cells [3] = test: MTT viability assay in preadipocytes; assay type: cell-based, Mouse; conditions: 20 µM, 48 h
Procedure: To evaluate the effect of D. delacourii extracts on cell viability, 3T3-L1 preadipocytes were seeded into 96-well plates at density of 2 × 10^3 cells/well and allowed to attach overnight at 37 °C. Then, the cells were further cultured with extracts (5 μg/mL), compounds (20 μM), or left untreated for 48 h before adding of 0.45 mg/mL MTT solution to assess cell viability. After incubation for 3 h at 37 °C and kept from light, the optical density (OD) of the purple formazan product dissolved in DMSO was measured at 570 nm using a microplate reader (Anthros, Durham, NC, USA). The relative OD ratio of treated to non-treated cells was presented as percentage cell viability.

p-GSK3β/GSK3β = test: Western blot of p-GSK3β/GSK3β in differentiating 3T3-L1 cells; assay type: cell-based, Mouse; conditions: 20 µM, 38–48 h
Text: Due to the expression of adipogenic transcription factors also modulated via Akt/GSK3β [46, 47, 48], the alteration of the p-GSK3β/GSK3β level was additionally examined in densifloral B-treated 3T3-L1 cells. The phosphorylation by p-Akt results in the inactivation of the GSK3β degradation complex following the initiation of targeted gene expression.
as §3

3T3-L1 cells [4] = test: adipocyte differentiation / lipid accumulation by oil red O staining; assay type: cell-based, Mouse; conditions: for IC50: Mus musculus, 3T3-L1, 0–50 µM, oil red O staining, 3T3-L1 cells; for reduction in oil red O staining: differentiated 3T3-L1 cells
Procedure: Mouse embryonic preadipocyte 3T3-L1 cells were cultured in DMEM containing 10% FBS, 100 units/mL of penicillin/streptomycin, and 2 mmol/L of L-glutamine under humidified conditions of 5% CO2 at 37 °C until 70–80% confluence was reached. For differentiation into adipocyte, preadipocyte 3T3-L1 cells were incubated with differentiation media composed of 10% FBS, 0.5 mM isobutylmethylxanthine, 1 μM dexamethasone, and 5 µg/mL insulin in DMEM with or without test compound for 2 days. Then, the differentiation media was replaced with culture media containing 5 µg/mL of insulin. After further incubation for 2 days, the cells were maintained in complete DMEM, which was changed every 2 days until adipocytes containing lipid droplets were observed under microscope.
The lipid droplets presenting in differentiated adipocytes were detected via oil red O staining. After the differentiation process, 3T3-L1 cells were fixed with 10% formalin for 45 min and further incubated with oil red O solution at room temperature for 1 h. After washing with 60% isopropanol for three times, oil red O-stained cells were captured using a Nikon Ts2 inverted optical microscope (Tokyo, Japan). For quantification, cellular oil red O was extracted using absolute isopropanol for measurement of OD at 570 nm by microplate reader (Anthros, Durham, NC, USA). The percentage of oil red O staining was calculated relative to the total protein content determined by BCA assay.

3T3-L1 cells [5] = test: cell death detection by Hoechst33342/propidium iodide costaining; assay type: cell-based; conditions: 20 µM, 48 h
Procedure: The cytotoxicity of D. delacourii extracts was confirmed via cell death detection using costaining of Hoechst33342 and propidium iodide. After 48 h incubation with indicated treatment, the cells were further incubated with nuclear staining solution containing 2 μg/mL of Hoechst33342 and 1 μg/mL of propidium iodide for 30 min. The mode of cell death was observed under a fluorescence microscope (Olympus IX51 with DP70, Olympus Corp., Shinjuku-ku, Tokyo, Japan).

[6] = read-out: α-Glucosidase inhibitory activity IC50
[7] = inhibitor dose 12 μM, substrate 0.25-2.0 mM

T1 sequence (P53341 whole entry): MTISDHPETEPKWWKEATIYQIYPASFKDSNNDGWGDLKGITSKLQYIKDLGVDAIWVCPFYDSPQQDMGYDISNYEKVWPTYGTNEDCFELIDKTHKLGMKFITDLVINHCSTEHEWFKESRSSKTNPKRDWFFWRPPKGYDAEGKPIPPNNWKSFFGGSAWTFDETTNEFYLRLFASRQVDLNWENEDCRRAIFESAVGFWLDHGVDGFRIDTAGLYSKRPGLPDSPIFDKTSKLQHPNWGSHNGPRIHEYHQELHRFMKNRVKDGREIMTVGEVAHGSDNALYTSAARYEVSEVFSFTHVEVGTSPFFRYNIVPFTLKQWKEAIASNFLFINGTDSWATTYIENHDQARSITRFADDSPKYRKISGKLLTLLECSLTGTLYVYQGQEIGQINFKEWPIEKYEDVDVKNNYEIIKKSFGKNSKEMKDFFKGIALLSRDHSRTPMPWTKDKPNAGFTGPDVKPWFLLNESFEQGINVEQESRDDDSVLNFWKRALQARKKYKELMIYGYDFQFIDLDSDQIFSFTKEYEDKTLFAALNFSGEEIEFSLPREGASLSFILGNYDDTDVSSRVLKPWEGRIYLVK

Compound: COc1cc(O)c2c(c1-c1c(OC)cc(O)c3c1CCc1cc(O)ccc1-3)CCc1cc(O)ccc1-2 [4,4′,7,7′-tetrahydroxy-2,2′-dimethoxy-9,9′,10,10′-tetrahydro-1,1′-biphenanthrene]
- IC50 (α-glucosidase [1]): 18.4 ± 3.4 µM

Compound: C[C@H]1O[C@H](O[C@H]2[C@H](O)[C@@H](O)[C@@H](O[C@H]3[C@H](O)[C@@H](O)C(O)O[C@@H]3CO)O[C@@H]2CO)[C@H](O)[C@@H](O)[C@@H]1N[C@H]1C=C(CO)[C@@H](O)[C@H](O)[C@H]1O (some centres unmarked) [Acarbose, acarbose, reference compound]
- type of enzyme inhibition (α-glucosidase [2]): competitive type of inhibition
- Km (α-glucosidase [2]; inhibitor dose 465 μM): 4.17 mM
- Vmax (α-glucosidase [2]; inhibitor dose 465 μM): 0.10 ∆OD/min
- Km (α-glucosidase [2]; inhibitor dose 930 μM): 6.47 mM
- Vmax (α-glucosidase [2]; inhibitor dose 930 μM): 0.11 ∆OD/min

Compound: COC1=CC(=O)c2c(ccc3cc(O)ccc23)C1=O [Densifloral B (3), densifloral B]
- phosphorylated AMPKβ1 (p-AMPKβ1) (p-AMPKβ1): upregulated
- activated Akt (p-Akt) (p-Akt): suppressed
- expression level of C/EBPα (C/EBPα): restrained
- expression level of PPARγ (PPARγ): restrained
- phosphorylated ACC (p-ACC) (p-ACC): upregulated
- phosphorylated AMPKα (p-AMPKα) (p-AMPKα): upregulated
- viability / cytotoxicity in 3T3-L1 cells (3T3-L1 cells [3]): no cytotoxicity
- p-GSK3β/GSK3β expression level (p-GSK3β/GSK3β): significantly lessened
- IC50 (3T3-L1 cells [4]): 14.8 ± 1.6 µM
- reduction in oil red O staining (3T3-L1 cells [4]; at 20 µM): ~65.2%

Compound: COC1=CC(=O)C2=C(CCc3cc(O)ccc32)C1=O [Ephemeranthoquinone (2), ephemeranthoquinone]
- viability / cytotoxicity in 3T3-L1 cells (3T3-L1 cells [3]): significantly decreased viability
- reduction in oil red O staining (3T3-L1 cells [4]; at 20 µM): approximately 64.7%

Compound: COc1cc(O)cc(CCc2ccc(O)c(OC)c2)c1 [Gigantol (6), gigantol]
- IC50 (α-glucosidase [1]; [6]): 191 ± 6.8 µM

Compound: COc1cc(O)c2c(c1)CCc1cc(O)ccc1-2 [Lusianthridin (8), lusianthridin]
- IC50 (α-glucosidase [1]; [6]): 195 ± 9.6 µM

Compound: COc1cc(O)cc2ccc3cccc(O)c3c12 [Moscatin (4), moscatin]
- IC50 (α-glucosidase [1]; [6]): 390 ± 9.8 µM

Compound: COc1cc(O)c2c(c1)CCc1cc(O)c(-c3c(OC)cc(O)c4c3CCc3cc(O)ccc3-4)cc1-2 [Phoyunnanin C (11), phoyunnanin C]
- type of enzyme inhibition (α-glucosidase [2]): non-competitive
- Ki (α-glucosidase [2]): 5.97 µM
- Vmax (α-glucosidase [2]; [7]): 0.049 ∆OD/min
- Vmax (α-glucosidase [2]; inhibitor dose 24 μM, substrate 0.25-2.0 mM): 0.023 ∆OD/min
- IC50 (α-glucosidase [1]; [6]): 12.6 ± 0.9 µM

Compound: COc1cc(O)c2c(c1)CCc1cc(Oc3c(OC)cc(O)c4c3CCc3cc(O)ccc3-4)ccc1-2 [Phoyunnanin E (10), phoyunnanin E]
- type of enzyme inhibition (α-glucosidase [2]): non-competitive
- Ki (α-glucosidase [2]): 5.89 µM
- Vmax (α-glucosidase [2]; [7]): 0.049 ∆OD/min
- Vmax (α-glucosidase [2]; inhibitor dose 22 μM, substrate 0.25-2.0 mM): 0.024 ∆OD/min
- IC50 (α-glucosidase [1]; [6]): 8.9 ± 0.8 µM

Compound: Oc1cc(O)cc(/C=C/c2ccc(O)cc2O)c1 [oxyresveratrol, reference compound]
- viability / cytotoxicity in 3T3-L1 cells (3T3-L1 cells [3]): no change
- cell death (3T3-L1 cells [5]): no change
- IC50 (3T3-L1 cells [4]): 21.1 ± 1.5 µM
- oil red O staining percentage compared with control (in words) (3T3-L1 cells [4]; at 20 µM): lower oil red O staining percentage
